For orientation: MIC50 means the lowest concentration that inhibits either 50% of growth or 50% of the strains tested, depending on the study. The MIC90 is the lowest concentration that inhibits either 90% of growth or 90% of the strains tested, depending on the study. A word on the MIC: it is the lowest concentration found to suppress growth.

The text below walks through data of ChEMBL document CHEMBL1649265, “Antimicrobial susceptibilities of Mycoplasma genitalium strains examined by broth dilution and quantitative PCR” (2009).

Holding throughout (type): functional
Holding throughout (details): Mycoplasmoides genitalium

For assay [1], the system named is Mycoplasma genitalium. In words: Antibacterial activity against Mycoplasma genitalium by broth dilution method.
Assay [2] has as its system Mycoplasma genitalium. In words: Antibacterial activity against Mycoplasma genitalium G37 by broth dilution method. On the technique in general: Dilution methods test growth across graded concentrations, often in twofold steps.
Assay [3] relates to Mycoplasma genitalium. Description: Antibacterial activity against Mycoplasma genitalium M30 by broth dilution method.
Assay [4] deals with Mycoplasma genitalium. Description: Antibacterial activity against Mycoplasma genitalium R32 by broth dilution method.
The test system of assay [5] is Mycoplasma genitalium. In words: Antibacterial activity against Mycoplasma genitalium TW10-5G by broth dilution method.
Assay [6] concerns Mycoplasma genitalium. Description: Antibacterial activity against Mycoplasma genitalium TW10-6G by broth dilution method.
Assay [7] concerns Mycoplasma genitalium. In words: Antibacterial activity against Mycoplasma genitalium TW48-5G by broth dilution method.
Assay [8] relates to Mycoplasma genitalium. In words: Antibacterial activity against Mycoplasma genitalium UTMB-10G by broth dilution method.
Assay [9] concerns Mycoplasma genitalium. In words: Antibacterial activity against Mycoplasma genitalium M2282 by broth dilution method.
Assay [10] concerns Mycoplasma genitalium. Description: Antibacterial activity against Mycoplasma genitalium M2300 by broth dilution method.
The subject of assay [11] is Mycoplasma genitalium. In words: Antibacterial activity against Mycoplasma genitalium M2321 by broth dilution method.
In assay [12] the test system is Mycoplasma genitalium. Description: Antibacterial activity against Mycoplasma genitalium M2341 by broth dilution method.
The test system of assay [13] is Mycoplasma genitalium. In words: Antibacterial activity against Mycoplasma genitalium M6257 by broth dilution method.
The test system of assay [14] is Mycoplasma genitalium. In words: Antibacterial activity against Mycoplasma genitalium M6280 by broth dilution method.
Assay [15] relates to Mycoplasma genitalium. Description: Antibacterial activity against Mycoplasma genitalium M6285 by broth dilution method.
In assay [16] the test system is Mycoplasma genitalium. In words: Antibacterial activity against Mycoplasma genitalium M6286 by broth dilution method.
For assay [17], the system named is Mycoplasma genitalium. In words: Antibacterial activity against Mycoplasma genitalium M6328 by broth dilution method.
The test system of assay [18] is Mycoplasma genitalium. In words: Antibacterial activity against Mycoplasma genitalium M6090 by broth dilution method.
Assay [19] deals with Mycoplasma genitalium. Description: Antibacterial activity against Mycoplasma genitalium M6151 by broth dilution method.
In assay [20] the test system is Mycoplasma genitalium. Description: Antibacterial activity against Mycoplasma genitalium M6282 by broth dilution method.
Assay [21] deals with Mycoplasma genitalium. Description: Antibacterial activity against Mycoplasma genitalium M6283 by broth dilution method.
Assay [22] has as its system Mycoplasma genitalium. Description: Antibacterial activity against Mycoplasma genitalium M6284 by broth dilution method.
Assay [23] relates to Mycoplasma genitalium. Description: Antibacterial activity against Mycoplasma genitalium M6287 by broth dilution method.
Assay [24] has as its system Mycoplasma genitalium. In words: Antibacterial activity against Mycoplasma genitalium by quantitative TaqMan PCR method. (In qPCR the cycle at which signal appears reflects the starting amount.)

≈ marks a conversion by molar mass, not a printed value.

Consider `CN(C)c1ccc(O)c2c1C[C@H]1C[C@H]3[C@H](N(C)C)C(O)=C(C(N)=O)C(=O)[C@@]3(O)C(O)=C1C2=O` [MINOCYCLINE], for which the MIC50 with Mycoplasma genitalium [1] (read-out: MIC50) came to 0.125 µg/mL (≈ 0.273 µM). For the same compound, in the assay with Mycoplasma genitalium [1] (read-out: MIC90), the MIC90 was 0.25 µg/mL (≈ 0.546 µM). Further, the MIC with Mycoplasma genitalium [2] (read-out: MIC), in the assay with Mycoplasma genitalium [3] (read-out: MIC), in the assay on Mycoplasma genitalium [4] (read-out: MIC), in the assay on Mycoplasma genitalium [5] (read-out: MIC), with Mycoplasma genitalium [6] (read-out: MIC) and with Mycoplasma genitalium [7] (read-out: MIC) was 0.031 µg/mL (≈ 0.0678 µM) each time. For the same compound, the MIC with Mycoplasma genitalium [8] (read-out: MIC) was 0.031 µg/mL (≈ 0.0678 µM); against Mycoplasma genitalium [9], 0.063 µg/mL (≈ 0.138 µM); with Mycoplasma genitalium [10], 0.063 µg/mL (≈ 0.138 µM); in the assay with Mycoplasma genitalium [11], 0.063 µg/mL (≈ 0.138 µM); with Mycoplasma genitalium [12] it was 0.063 µg/mL (≈ 0.138 µM); against Mycoplasma genitalium [13], 0.063 µg/mL (≈ 0.138 µM). Moreover, the minimum inhibitory concentration (MIC) against Mycoplasma genitalium [14], with Mycoplasma genitalium [15], in the assay with Mycoplasma genitalium [16], against Mycoplasma genitalium [17], with Mycoplasma genitalium [18] and against Mycoplasma genitalium [19] was 0.063 µg/mL (≈ 0.138 µM) in each case. The minimal inhibitory concentration (MIC) with Mycoplasma genitalium [20], in the assay on Mycoplasma genitalium [21], in the assay on Mycoplasma genitalium [22] and in the assay with Mycoplasma genitalium [23] was 0.063 µg/mL (≈ 0.138 µM) each time.

Turning to `CC[C@H]1OC(=O)[C@H](C)[C@@H](O[C@H]2C[C@@](C)(OC)[C@@H](O)[C@H](C)O2)[C@H](C)[C@@H](O[C@@H]2O[C@H](C)C[C@H](N(C)C)[C@H]2O)[C@](C)(O)C[C@@H](C)CN(C)[C@H](C)[C@@H](O)[C@]1(C)O` [AZITHROMYCIN], the MIC50 in the assay on Mycoplasma genitalium [1] is 0.001 µg/mL (≈ 0.00134 µM); against Mycoplasma genitalium [24] it was 0.004 µg/mL (≈ 0.00534 µM). Also, the MIC90 was 0.002 µg/mL (≈ 0.00267 µM) in the assay with Mycoplasma genitalium [1] and 0.008 µg/mL (≈ 0.0107 µM) in the assay on Mycoplasma genitalium [24]. Moreover, the minimum inhibitory concentration (MIC) in the assay with Mycoplasma genitalium [2], against Mycoplasma genitalium [3], against Mycoplasma genitalium [4], against Mycoplasma genitalium [5], against Mycoplasma genitalium [6] and in the assay on Mycoplasma genitalium [7] was 0.001 µg/mL (≈ 0.00134 µM) each time. This compound also gave an MIC against Mycoplasma genitalium [8] of 0.001 µg/mL (≈ 0.00134 µM).

On to `C[C@H]1COc2c(N3CCN(C)CC3)c(F)cc3c(=O)c(C(=O)O)cn1c23.C[C@H]1COc2c(N3CCN(C)CC3)c(F)cc3c(=O)c(C(=O)O)cn1c23.O` [LEVOFLOXACIN], for which the MIC50 in the assay with Mycoplasma genitalium [1] (read-out: MIC50) and with Mycoplasma genitalium [24] was 1 µg/mL each time. Also, the MIC90 in the assay on Mycoplasma genitalium [1] (read-out: MIC90) was 2 µg/mL; in the assay on Mycoplasma genitalium [24] it was 4 µg/mL. In addition, the MIC in the assay on Mycoplasma genitalium [2] (read-out: MIC), with Mycoplasma genitalium [3] (read-out: MIC), in the assay with Mycoplasma genitalium [4] (read-out: MIC), with Mycoplasma genitalium [5] (read-out: MIC), in the assay with Mycoplasma genitalium [6] (read-out: MIC) and in the assay with Mycoplasma genitalium [7] (read-out: MIC) was 1 µg/mL throughout. The MIC was found to be 1 µg/mL with Mycoplasma genitalium [8] (read-out: MIC); 0.125 µg/mL against Mycoplasma genitalium [9]; 0.125 µg/mL against Mycoplasma genitalium [10]; 0.125 µg/mL against Mycoplasma genitalium [11]; 0.125 µg/mL in the assay with Mycoplasma genitalium [12]; 0.125 µg/mL against Mycoplasma genitalium [13]. For the same compound, the MIC with Mycoplasma genitalium [14], with Mycoplasma genitalium [15], in the assay on Mycoplasma genitalium [16], with Mycoplasma genitalium [17], against Mycoplasma genitalium [18] and in the assay on Mycoplasma genitalium [19] was 0.125 µg/mL throughout. The minimal inhibitory concentration (MIC) against Mycoplasma genitalium [20], in the assay with Mycoplasma genitalium [21], against Mycoplasma genitalium [22] and in the assay on Mycoplasma genitalium [23] was 0.125 µg/mL throughout.

With `CC[C@H]1OC(=O)[C@H](C)[C@@H](O[C@H]2C[C@@](C)(OC)[C@@H](O)[C@H](C)O2)[C@H](C)[C@@H](O[C@@H]2O[C@H](C)C[C@H](N(C)C)[C@H]2O)[C@](C)(OC)C[C@@H](C)C(=O)[C@H](C)[C@@H](O)[C@]1(C)O` [CLARITHROMYCIN], the figures for the MIC50 in the assay on Mycoplasma genitalium [1] and with Mycoplasma genitalium [24] were 0.004 µg/mL (≈ 0.00535 µM) and 0.032 µg/mL (≈ 0.0428 µM), respectively. In addition, the MIC90 in the assay with Mycoplasma genitalium [1] is 0.008 µg/mL (≈ 0.0107 µM); in the assay on Mycoplasma genitalium [24] it was 0.063 µg/mL (≈ 0.0842 µM). The minimum inhibitory concentration (MIC) with Mycoplasma genitalium [2], with Mycoplasma genitalium [3], in the assay on Mycoplasma genitalium [4], against Mycoplasma genitalium [5], in the assay on Mycoplasma genitalium [6] and against Mycoplasma genitalium [7] was 0.002 µg/mL (≈ 0.00267 µM) throughout. In the assay with Mycoplasma genitalium [8], this compound yielded an MIC of 0.002 µg/mL (≈ 0.00267 µM).

Compound `O=C(O)c1cn(C2CC2)c2cc(N3CCNCC3)c(F)cc2c1=O` [CIPROFLOXACIN] showed an MIC50 against Mycoplasma genitalium [24] of 2 µg/mL (≈ 6.04 µM). In the assay on Mycoplasma genitalium [24], this compound registered an MIC90 of 8 µg/mL (≈ 24.1 µM). Also, the minimal inhibitory concentration (MIC) in the assay with Mycoplasma genitalium [2] (read-out: MIC), in the assay on Mycoplasma genitalium [3] (read-out: MIC), in the assay on Mycoplasma genitalium [4] (read-out: MIC), in the assay with Mycoplasma genitalium [5] (read-out: MIC), in the assay on Mycoplasma genitalium [6] (read-out: MIC) and with Mycoplasma genitalium [7] (read-out: MIC) was 0.004 µg/mL (≈ 0.0121 µM) in each case. Moreover, the MIC is 0.004 µg/mL (≈ 0.0121 µM) with Mycoplasma genitalium [8] (read-out: MIC); 0.063 µg/mL (≈ 0.19 µM) in the assay with Mycoplasma genitalium [9]; 0.063 µg/mL (≈ 0.19 µM) in the assay with Mycoplasma genitalium [10]; 0.063 µg/mL (≈ 0.19 µM) in the assay with Mycoplasma genitalium [11]; 0.063 µg/mL (≈ 0.19 µM) with Mycoplasma genitalium [12]; 0.063 µg/mL (≈ 0.19 µM) against Mycoplasma genitalium [13]. For the same compound, the minimal inhibitory concentration (MIC) with Mycoplasma genitalium [14], in the assay on Mycoplasma genitalium [15], against Mycoplasma genitalium [16], against Mycoplasma genitalium [17], with Mycoplasma genitalium [18] and against Mycoplasma genitalium [19] was 0.063 µg/mL (≈ 0.19 µM) throughout. The MIC against Mycoplasma genitalium [20], against Mycoplasma genitalium [21], against Mycoplasma genitalium [22] and against Mycoplasma genitalium [23] was 0.063 µg/mL (≈ 0.19 µM) in each case.
